# Measured values as given in patent publication US10017791B2, “Coryneform bacterium transformant and process for producing 4-hydroxybenzoic acid or salt thereof using the same” (GREEN PHENOL DEVELOPMENT CO., LTD., priority 2014, dated 2018).
# Biological target: T1, chorismate-pyruvate lyase of Citrobacter youngae (Citrobacter youngae, UniProt A0ABM8MN84, A17E/A70K/G54A/S20A/T66M)
# T1 sequence (A0ABM8MN84 1-165 A17E/S20A/G54A/T66M/A70K): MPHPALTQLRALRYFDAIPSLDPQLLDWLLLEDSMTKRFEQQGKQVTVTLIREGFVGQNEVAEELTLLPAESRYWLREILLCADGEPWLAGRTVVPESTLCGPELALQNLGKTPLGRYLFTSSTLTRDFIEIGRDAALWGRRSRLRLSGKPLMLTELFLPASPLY
# Assay: Product inhibition of chorismate-pyruvate lyase activity by 4-HBA (IC50)
# Type: biochemical
# Conditions: cell lysate supernatant of strain HBA13
smiles,measurement,value
"O=C(O)c1ccc(O)cc1 [Strain 4-HBA, 4-hydroxybenzoic acid]",IC50,67 µM
